Test results reported in patent publication EP4650002A1 (Ludwig-Maximilians-Universität, priority 2024, dated 2025).

Target: T1, human TLX (Homo sapiens, UniProt Q9Y466)
T1 construct: expressed in transfected cells; host or cells: HEK293T
Test: Gal4 hybrid reporter gene assay (TLX modulation)
Type: cell-based
Design: key to relative reporter activity: fraction of DMSO control (DMSO = 1)
Details: for EC50: Gal4-TLX hybrid reporter in HEK293T cells, 16 h incubation; for relative reporter activity: DMSO control = 1
Method: In the Tables, the TLX relative reporter activity is expressed as EC50 (in µM) for each listed compound. "EC50" refers to a measure of the concentration of a compound which induces a biological response halfway between the baseline and maximum after a specified exposure time. […] The EC50 is measured via a hybrid reporter gene assay, employing the transfection of a reporter (firefly luciferase with Gal4 response element), a control gene (Renilla luciferase), a transcriptional activator (Gal4-VP16) and a hybrid receptor consisting of the TLX ligand binding domain (LBD) and the Gal4 DNA binding domain (DBD).
Hybrid reporter gene assays. […] After 24 h, medium was changed to Opti-MEM without supplements and cells were transiently transfected using Lipofectamine LTX reagent (Invitrogen, Carlsbad, CA, USA) according to the manufacturer's protocol. Five hours after transfection, cells were incubated with the test compounds in Opti-MEM supplemented with penicillin (100 U/mL), streptomycin (100 µg/mL) and 0.1% DMSO for 16 h before luciferase activity was measured using the Dual-Glo Luciferase Assay System (Promega) according to the manufacturer's protocol on a Tecan Spark luminometer (Tecan Deutschland GmbH, Crailsheim, Germany). Firefly luminescence was divided by Renilla luminescence and multiplied by 1000 resulting in relative light units (RLU) to normalize for transfection efficiency and cell growth. Fold activation was obtained by dividing the mean RLU of test compound by the mean RLU of the untreated control. All samples were tested in at least three biologically independent experiments in duplicates. For dose-response curve fitting and calculation of EC50 values, the equation "[Agonist] vs. response -- Variable slope (four parameters)" was used in GraphPad Prism (version 7.00, GraphPad Software, La Jolla, CA, USA).

[1] = minimal remaining or maximum reporter activity after treatment, in brackets below the EC50, <1 agonism, >1 inverse agonism

T1 sequence (Q9Y466 155-383 limits assumed): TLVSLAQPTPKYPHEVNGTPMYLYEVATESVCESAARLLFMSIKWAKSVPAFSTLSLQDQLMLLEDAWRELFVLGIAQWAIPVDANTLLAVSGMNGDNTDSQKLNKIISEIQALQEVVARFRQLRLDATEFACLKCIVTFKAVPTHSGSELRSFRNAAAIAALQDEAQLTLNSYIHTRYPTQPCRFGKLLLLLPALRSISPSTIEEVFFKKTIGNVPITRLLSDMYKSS

Q: Which EC50 does the source give for `CC(=O)c1cc(-c2cc(N)cc(C(F)(F)F)c2)cs1` [compound 60, 1-(4-(3-amino-5-(trifluoromethyl)phenyl)thiophen-2-yl)ethan-1-one] here?
A: 700 ± 300 nM

Q: What about the relative reporter activity [1] of the same compound?
A: 0.24±0.07

Q: Which results are given for `CC(=O)c1cc(-c2cc(NC(=O)c3ccnc4ccccc34)cc(C(F)(F)F)c2)cs1` [compound 61, N-(3-(5-acetylthiophen-3-yl)-5-(trifluoromethyl)phenyl)quinoline-4-carboxamide]?
A: EC50: 1100 ± 300 nM; relative reporter activity [1]: 0.17±0.08

Q: Which EC50 does the source give for `CC(=O)c1cc(-c2cc(NC(=O)Cc3ccccc3Cl)cc(C(F)(F)F)c2)cs1` [compound 62, N-(3-(5-acetylthiophen-3-yl)-5-(trifluoromethyl)phenyl)-2-(2-chlorophenyl)-acetamide] here?
A: 360 ± 90 nM

Q: What about the relative reporter activity [1] of the same compound?
A: 0.27±0.03

Q: `Nc1cc(-c2cscn2)cc(C(F)(F)F)c1` [compound 63, 3-(thiazol-4-yl)-5-(trifluoromethyl)aniline] was tested. Which EC50 did it give?
A: 11000 ± 3000 nM

Q: What about the relative reporter activity [1] of the same compound?
A: 0.58±0.10

Q: For `Cc1nc(-c2cc(N)cc(C(F)(F)F)c2)cs1` [compound 64, 3-(2-methylthiazol-4-yl)-5-(trifluoromethyl)aniline], which relative reporter activity (at 120 µM) is on record?
A: (0.67±0.06 at 120 µM)

Q: For `CC(=O)c1nc(-c2cc(N)cc(C(F)(F)F)c2)cs1` [compound 65, 1-(4-(3-Amino-5-(trifluoromethyl)phenyl)thiazol-2-yl)ethan-1-one], which relative reporter activity [1] is on record?
A: 0.26±0.05

Q: What does the source list for `Nc1cc(-c2cncnc2)cc(C(F)(F)F)c1` [compound 66, 3-(pyrimidin-5-yl)-5-(trifluoromethyl)aniline]?
A: EC50: 2100 ± 500 nM; relative reporter activity [1]: 0.40±0.06

Q: For `Cc1ccc(-c2cc(N)cc(C(F)(F)F)c2)cc1` [compound 67, 4'-methyl-5-(trifluoromethyl)-[1, 1 '-biphenyl]-3-amine], which relative reporter activity (at 30 µM) is on record?
A: inactive at 30 µM

Q: How did the EC50 turn out when `Cc1ncc(-c2cc(N)cc(C(F)(F)F)c2)cn1` [compound 68, 3-(2-methylpyrimidin-5-yl)-5-(trifluoromethyl)aniline] was run?
A: 15000 ± 6000 nM

Q: And the relative reporter activity [1]?
A: 0.34±0.09

Q: Which EC50 does the source give for `Cc1cc(-c2cc(N)cc(C(F)(F)F)c2)cnc1C` [compound 69, 3-(5,6-dimethylpyridin-3-yl)-5-(trifluoromethyl)aniline] here?
A: 6300 ± 2100 nM

Q: For `CC(=O)c1cncc(-c2cc(N)cc(C(F)(F)F)c2)c1` [compound 70, 1-(5-(3-amino-5-(trifluoromethyl)phenyl)pyridin-3-yl)ethan-1-one], which EC50 is on record?
A: 4600 ± 2400 nM

Q: With `Cc1cccc(-c2cc(N)cc(C(F)(F)F)c2)c1` [compound 72, 3'-methyl-5-(trifluoromethyl)-[1,1'-biphenyl]-3-amine] as the compound, how does the relative reporter activity (at 30 µM) read?
A: inactive at 30 µM

Q: With `Nc1cc(-c2ccncc2)cc(C(F)(F)F)c1` [compound 73, 3-(pyridin-4-yl)-5-(trifluoromethyl)aniline] as the compound, how does the EC50 read?
A: 13000 ± 4000 nM

Q: What about the relative reporter activity [1] of the same compound?
A: 0.18±0.13

Q: Which EC50 does the source give for `Cc1cc(-c2cc(N)cc(C(F)(F)F)c2)ccn1` [compound 74, 3-(2-methylpyridin-4-yl)-5-(trifluoromethyl)aniline] here?
A: 6600 ± 2100 nM

Q: For `Cc1cc(-c2cc(NC(=O)c3ccnc4ccccc34)cc(C(F)(F)F)c2)ccn1` [compound 75, N-(3-(2-methylpyridin-4-yl)-5-(trifluoromethyl)phenyl)quinoline-4-carboxamide], which EC50 is on record?
A: 410 ± 110 nM

Q: What about the relative reporter activity [1] of the same compound?
A: 0.26±0.05

Q: For `Cc1cc(-c2cc(NC(=O)Cc3ccccc3)cc(C(F)(F)F)c2)ccn1` [compound 76, N-(3-(2-methylpyridin-4-yl)-5-(trifluoromethyl)phenyl)-2-phenylacetamide], which EC50 is on record?
A: 300 ± 70 nM

Q: What about the relative reporter activity [1] of the same compound?
A: 0.12±0.06

Q: What does the source list for `Cc1cc(-c2cc(NC(=O)c3ccc(Cl)c(Cl)c3)cc(C(F)(F)F)c2)ccn1` [compound 78, 3,4-dichloro-N-(3-(2-methylpyridin-4-yl)-5-(trifluoromethyl)phenyl)benzamide]?
A: EC50: 600 ± 200 nM; relative reporter activity [1]: 0.51±0.5

Q: `CC(=O)Nc1cc(-c2ccnc(C)c2)cc(C(F)(F)F)c1` [compound 79, N-(3-(2-methylpyridin-4-yl)-5-(trifluoromethyl)phenyl)acetamide] was tested. Which EC50 did it give?
A: 2600 ± 400 nM

Q: And the relative reporter activity [1]?
A: 0.18±0.06

Q: Which results are given for `Cc1cc(-c2cc(NC(=O)c3ccc4ccccc4c3)cc(C(F)(F)F)c2)ccn1` [compound 80, N-(3-(2-methylpyridin-4-yl)-5-(trifluoromethyl)phenyl)-2-naphthamide]?
A: EC50: 970 ± 220 nM; relative reporter activity [1]: 0.29±0.06

Q: Which results are given for `Cc1cc(-c2cc(NC(=O)c3cc4ccccc4s3)cc(C(F)(F)F)c2)ccn1` [compound 81, N-(3-(2-methylpyridin-4-yl)-5-(trifluoromethyl)phenyl)benzo[b]thiophene-2-carboxamide]?
A: EC50: 1200 ± 200 nM; relative reporter activity [1]: 0.39±0.05

Q: How did the EC50 turn out when `Cc1cc(-c2cc(NC(=O)C3CCC3)cc(C(F)(F)F)c2)ccn1` [compound 82, N-(3-(2-methylpyridin-4-yl)-5-(trifluoromethyl)phenyl)cyclobutanecarboxamide] was run?
A: 600 ± 200 nM

Q: What about the relative reporter activity [1] of the same compound?
A: 0.17±0.09

Q: `C=C(C(=O)Nc1cc(-c2ccnc(C)c2)cc(C(F)(F)F)c1)c1ccc2cc(OC)ccc2c1` [compound 83, 2-(6-methoxynaphthalen-2-yl)-N-(3-(2-methylpyridin-4-yl)-5-(trifluoromethyl)-phenyl)propenamide] was tested. Which relative reporter activity (at 10 µM) did it give?
A: (0.66±0.07 at 10 µM)

Q: How did the relative reporter activity (at 3 µM) turn out when `Cc1cc(-c2cc(NC(=O)C(O)(c3ccccc3)C3CCCC3)cc(C(F)(F)F)c2)ccn1` (centres unmarked) [compound 84, 2-cyclopentyl-2-hydroxy-N-(3-(2-methylpyridin-4-yl)-5-(trifluoromethyl)phenyl)-2-phenylacetamide] was run?
A: (0.26±0.05 at 3 µM)

Q: With `Cc1cc(-c2cc(NC(=O)C3CCCNC3)cc(C(F)(F)F)c2)ccn1` (centres unmarked) [compound 85, N-(3-(2-methylpyridin-4-yl)-5-(trifluoromethyl)phenyl)piperidine-3-carboxamide] as the compound, how does the relative reporter activity (at 20 µM) read?
A: (0.15±0.01 at 20 µM)

Q: What does the source list for `Cc1cc(-c2cc(NC(=O)c3cc(C)[nH]n3)cc(C(F)(F)F)c2)ccn1` [compound 86, 5-methyl-N-(3-(2-methylpyridin-4-yl)-5-(trifluoromethyl)phenyl)-1H-pyrazole-3-carboxamide]?
A: EC50: 3300 ± 700 nM; relative reporter activity [1]: 0.32±0.03

Q: What does the source list for `CC(=O)c1cc(-c2cc(N)cc(C(F)(F)F)c2)ccn1` [compound 87, 1-(4-(3-amino-5-(trifluoromethyl)phenyl)pyridin-2-yl)ethan-1-one]?
A: EC50: 4600 ± 2100 nM; relative reporter activity [1]: 0.30±0.05

Q: Which EC50 does the source give for `Cc1cc(-c2cc(N)cc(C(F)(F)F)c2)cc(C)n1` [compound 88, 3-(2,6-dimethylpyridin-4-yl)-5-(trifluoromethyl)aniline] here?
A: 1600 ± 800 nM

Q: With `Cn1ccc2cc(-c3cc(N)cc(C(F)(F)F)c3)ccc21` [compound 90, 3-(1-methyl-1H-indol-5-yl)-5-(trifluoromethyl)aniline] as the compound, how does the EC50 read?
A: 1100 ± 100 nM

Q: For `Nc1cc(-c2ccc3occc3c2)cc(C(F)(F)F)c1` [compound 91, 3-(benzofuran-5-yl)-5-(trifluoromethyl)aniline], which relative reporter activity (at 10 µM) is on record?
A: (0.84±0.06 at 10 µM)

Q: How did the relative reporter activity (at 10 µM) turn out when `Nc1cc(-c2ccc3sccc3c2)cc(C(F)(F)F)c1` [compound 92, 3-(benzo[b]thiophen-5-yl)-5-(trifluoromethyl)aniline] was run?
A: inactive at 10 µM

Q: For `Nc1cc(-c2ccc3[nH]ccc3c2)cc(C(F)(F)F)c1` [compound 93, 3-(1H-indol-5-yl)-5-(trifluoromethyl)aniline], which EC50 is on record?
A: 1400 ± 400 nM
